Assays:
[1] = target: T1, TrkB (Mus musculus, UniProt P15209); experiment: TrkB phosphorylation assay in primary astrocytes (Western blot); assay type: cell-based; conditions: compound 1 μM, 20 min, after 6 h serum starvation, BDNF 500 ng/mL as control
T1 construct: primary cortical astrocytes from 2-day-old mice (as a natively TrkB-expressing neuronal population); endogenous in cells; host or cells: primary cortical astrocytes from C57B/6 mouse pups (P2)
Protocol: We tested compounds on three cellular systems, primary cortical astrocytes from 2-day-old mice (as a natively TrkB-expressing neuronal population), and NIH-3T3 fibroblasts stable transfected with TrkB and NIH-3T3 naïve cells. Cells were grown with high-glucose DMEM medium supplemented with 10% fetal bovine serum (FBS), 100 μg/mL streptomycin, and 100 units/mL penicillin at 37°C in a humidified 5% CO2 atmosphere. Phosphorylation results presented here are in primary astrocytes, and cell toxicity assay results are in NIH-3T3 stable transfected cells with TrkB.
Cells were plated in 12 well plates, at a density of 100,000 cells per well, with 6 h of serum deprivation carried out on the following day. To assess the effect of compounds on TrkB phosphorylation, 20-min treatments were applied, using either BDNF at 500 ng/mL (Peprotech 450-02) (positive control) or compounds at 1 μM.
Cell lysis for 10 min was carried out on ice using the Pierce IP Lysis Buffer by Thermo Scientific and a phospho-protease inhibitor cocktail by Millipore. After adding loading buffer (5 × Laemni), 25 μg from each protein sample were incubated for 5 min at 95°C and subjected to SDS-PAGE. Proteins were transferred to a nitrocellulose membrane at 350 mA for 2 h. Membrane blocking was performed using 5% bovine serum albumin (BSA) at room temperature for 1 h, before adding the primary antibodies to the blocking solution at 4°C overnight. HRP-conjugated secondary antibodies were used for the detection of chemiluminescence with ECL solution. Primary antibodies: Phospho-TrkB (Tyr816) Millipore # ABN1381, and Anti-TrkB Abcam #ab33655.
Mixed glial cultures were isolated from the cortex of C57B/6 pups at post-natal day 2 (P2). Cells were plated in a medium containing high-glucose DMEM, 200 U/mL penicillin, 200 μg/mL streptomycin, and 10% fetal bovine serum (FBS). When cells reach 100% confluency (7–8 days), the anti-mitotic agent Ara-C was added in the media at a final concentration of 10 μM, for 3 to 4 days to target the highly proliferative microglial cells. Ara-C was removed, and primary astrocytes (97% purity) were cultured at 5% CO2 and 37°C.
Cells were plated at 70–80% confluency. The next day, they were deprived of serum for 6 h and subsequently treated with 500 ng/mL BDNF or 1 μM of compounds for 20 min. Cells were then lysed in Pierce™ IP Lysis Buffer (87788, Thermo Fischer Scientific, Rockford, USA), containing proteases (539138, Calbiochem, Darmstadt, Germany), and phosphatase inhibitors (524629, Calbiochem, Darmstadt, Germany). Lysates were then suspended in an SDS loading buffer and subjected to Western blot against phosphorylated TrkB (1:1,000, ABN1381, Sigma-Aldrich, St. Louis, MO, USA) and total TrkB (1:1,000, 07-225-I, Sigma-Aldrich, St. Louis, MO, USA).

[2] = Metabolic stability in pooled human liver microsomes; assay type: in vitro ADME; conditions: 1 μM
Method in brief: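 Test compounds at 1 µM incubated in triplicate with pooled human liver microsomes (0.5 mg/mL) and ~1 mM NADPH at 37 °C, stopped after 60 min. Parent loss classed very slow (<5%) to very fast (>80%); metabolism rated high, moderate or low by t1/2 cut-offs of 30 and 60 min.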

[3] = system: PC12 cells; experiment: CellTox assay, survival of PC12 cells under serum deprivation; assay type: cell-based; conditions: compound 500 nM, 24 h, after 4 h serum starvation; NGF 100 ng/mL as control (Figure 9)

T1 sequence (P15209 32-821): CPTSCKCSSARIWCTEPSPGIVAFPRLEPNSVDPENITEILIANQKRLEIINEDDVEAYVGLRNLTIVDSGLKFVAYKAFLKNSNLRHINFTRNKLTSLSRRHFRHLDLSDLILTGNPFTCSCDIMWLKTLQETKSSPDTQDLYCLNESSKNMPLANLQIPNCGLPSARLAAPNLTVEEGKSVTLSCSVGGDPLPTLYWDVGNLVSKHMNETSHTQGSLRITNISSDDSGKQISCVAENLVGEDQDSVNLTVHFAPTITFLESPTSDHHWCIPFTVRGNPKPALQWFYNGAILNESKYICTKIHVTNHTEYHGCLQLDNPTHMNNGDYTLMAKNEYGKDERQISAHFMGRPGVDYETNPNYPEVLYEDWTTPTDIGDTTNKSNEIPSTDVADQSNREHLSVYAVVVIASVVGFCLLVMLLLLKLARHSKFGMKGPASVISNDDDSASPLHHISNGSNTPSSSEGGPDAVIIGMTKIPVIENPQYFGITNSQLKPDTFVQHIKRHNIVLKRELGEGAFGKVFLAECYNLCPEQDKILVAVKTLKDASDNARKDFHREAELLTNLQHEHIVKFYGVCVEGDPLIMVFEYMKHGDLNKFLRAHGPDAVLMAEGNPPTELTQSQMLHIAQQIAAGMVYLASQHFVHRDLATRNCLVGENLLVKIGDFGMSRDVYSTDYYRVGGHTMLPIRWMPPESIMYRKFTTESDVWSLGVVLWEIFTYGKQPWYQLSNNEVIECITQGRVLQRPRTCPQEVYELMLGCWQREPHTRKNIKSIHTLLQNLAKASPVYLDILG

**Q.** With C[C@]12CC[C@H](O)CC1=CC[C@@H]1[C@@H]2CC[C@@]2(C)[C@H]1CC[C@@]21CC=C(Cn2cc(Cc3ccccc3)nn2)CO1 [ENT-A055, (3S,17R)-5′-[(4-benzyl-1H-1,2,3-triazol-1-yl)methyl]-3′,6′-dihydrospiro[5-androstene-17,2′-pyran]-3-ol] as the compound, how does the “phosphorylation levels of the TrkB receptor” value [1] read?
**A.** The value was “successfully increased phosphorylation levels of the TrkB receptor compared to the untreated control”.

**Q.** And the “residual of time zero” value ([2]; pooled human liver microsomes 0.5 mg/mL, t = 60 min, NADPH)?
**A.** Its value is over 95%.

**Q.** What about the “parent structure loss (depletion) class” value ([2]; pooled human liver microsomes, 60 min) of the same compound?
**A.** The value was “very slow (very slow (<5%))”.

**Q.** And the “protection of PC12 cells from serum deprivation-induced cell death (CellTox)” value [3]?
**A.** The value was “without showing any antiapoptotic activity in PC12 cells”.

Source: PMC10568017, “A quest for the stereo-electronic requirements for selective agonism for the neurotrophin receptors TrkA and TrkB in 17-spirocyclic-dehydroepiandrosterone derivatives” (Frontiers in Molecular Neuroscience, 2023)
